Data from patent publication US20110312890A1, “ACETYLATED AMINO ACIDS AS ANTI-PLATELET AGENTS, NUTRITIONAL AND VITAMIN SUPPLEMENTS” (SIGNATURE R&D HOLDINGS, LLC, priority 2005, published 2011).
Where “and” joins values, the source holds several entries; their conditions need not be identical. Equal entries are not always repeated. Each block holds one compound with its values, some of them ahead of it. Non-standard residues stand in square brackets, D forms with d. Residues, ends and D or L forms follow the SMILES beside them. ξ: configuration not given here. ξY = NC(Cc1ccc(O)cc1)C(=O)O; ξS = NC(CO)C(=O)O

Legend:
[1] = Hygroscopicity and handling stability of salts and zwitterions; format: physicochemical
Procedure: Salts of compound O-Acetyl-(L)-Serine-O—(O-Acetyl)-L-Serine with various acids, including HCl, MeSO3H and tartaric acid, were prepared. […] The salt with tartaric acid was unstable and produced the zwitterion son attempted recrystallization from water/acetonitrile. The zwitterions of all three compounds were the most convenient forms (non-hygroscopic) for preparation. If needed, salts are prepared in situ during the formulation process.
(§1) A sample of the compound of Ex 3 was tested in D2O with 1 drop of DCl added for a better solubility of the material. […] Stability of the compound of Ex 3 in an aqueous solution as a salt of tartaric acid is much greater. A 400-mg sample of the salt was attempted to recrystallize from 6 ml of boiling acetonitrile and 20 drops of water. The material crystallized as a zwitterion (not a tartrate) with minor traces of the decomposition. However, the recovery was 132 mg only.
(§2) c. The material of Ex 3 as a zwitterion was recrystallized from aqueous 40% EtOH while heating at 70 C for approximately 20 minutes. […] In a solution of 8% acetonitrile/92% aqueous 0.05 mol buffer of KH2PO4 (pH 5). […] Temperature of the analyses greatly affected the outcome of the analyses.

[2] = Stability in solution or solid state followed by NMR; format: physicochemical
Procedure: (§3) In addition, HPLC analysis of the products indicated faster degradation when determinations were made at higher temperatures (40 or 25° C. compared to 10 or 15° C.). The purity of the compounds of Ex 4 varied by as much as 20% when the analysis was performed at 25 and 10° C., respectively.
as §1
(§4) f. Instability of the compound of Ex 4 in an aqueous solution as a zwitterion was observed when a recovery of an additional amount of the material from a large freeze-drying flask was attempted. Simple dissolution of a residual material on the walls with DI water followed by freeze-drying has decrease estimated by NMR purity from 95-96% to 87-88%. • g. […] The same sample analyzed at 25 C and 10 C had difference in purity 13-15%, e.g., either 78-80% or 93%.
(§5) Instability of the compound of Ex 5 in an aqueous solution as a zwitterion was observed while doing a purification of an additional amount of the material on C8 silica gel with water/acetonitrile as eluent. • j. The material of the compound of Ex 5 was decomposing faster during HPLC analysis when temperature of the thermostat was higher. The same sample analyzed at 40 C and 15 C had purity 97% or 99%, correspondingly. • k.

[3] = Stability followed by HPLC purity (time in solution, temperature of analysis); format: physicochemical; conditions: for HPLC purity, same sample analyzed at 10 C: temperature of analysis 10 C (Ex 3: pH 4.5); for HPLC purity, same sample analyzed at 40 C: temperature of analysis 40 C
Procedure: as §3, §2, §4, §5

[4] = test system: platelet aggregation; experiment: Whole blood clotting time by capillary tube method in human volunteers; format: in vivo; conditions: for Max % Increase in clotting time: versus time zero
Procedure: A Test Method was developed to determine clotting time to evaluate the anti, platelet aggregation effect of O-acetyl-L-Tyrosine (OAT) by employing capillary tube method in two human volunteers.
1. Dose Strength: Volunteer 1 (90 Kg) 1000 mg, Volunteer 2 (60 Kg) 350 mg of OAT
3. Route of Administration: Single exposure by […]. 4. Blank Control Self, time zero clotting time
600 mg of O-Acetyl-L-Serine-O-Acetyl-L-Tyrouine was administered to a single human volunteer who weighs 136 lbs and is […]. The procedure was conducted using the protocol of Example 2, except the drug administered was O-Acetyl-L-Serine-O-Acetyl-L-Tyrosine. The results are depicted in FIG. 3.

[5] = test system: platelet aggregation; experiment: Clotting time by capillary tube method in Swiss Albino rats (anti platelet aggregation effect); format: in vivo; conditions: for Clotting time: OAS study, 2 hours post dosing, HCl salt; for Clotting time / Clotting time in minutes, After 4 hrs of administration / Clotting time in minutes, After 24 hrs of administration: single oral gavage; for Significance of clotting times at all dose levels and between the dose levels (FIG. 1): rats, 10-100 mg/kg, average of 5 rats, P<0.5 [sic]; for Clotting time in minutes, After 4 hrs of administration / Clotting time in minutes, After 24 hrs of administration: OAT study
Procedure: A Test Method was developed to determine clotting time to evaluate the anti platelet aggregation effect of O-acetyl-L-Serine HCl salt (OAS), and O-acetyl-L-Tyrosine (OAT) by employing a capillary tube method using Swiss Albino Rats as the test system.
Young 5-6 weeks old Swiss Albino rats weighing about 200 Gm were used in the following protocol. They were obtained from an established animal supplier.
1. Dose Strength: 10, 20, 50 and 100 mg/kg of OAS and OAT
3. Route of Administration: Single exposure by oral gavage. 4. No. of animals per group: 5
Experimental procedure: The rats were fasted for 18-20 hours before dosing. A Syringe attached to a 16 gauge blunt tipped canula was used for this purpose. Two hours after dosing, the animals were provided with feed. 24 hours (±10 minutes) after the administration of the drug, blood samples were collected (0.2 ml approx) in capillary tubes. Animals were anaesthetized by mild ether inhalation by keeping a cotton swab soaked in ether near the nostrils of the animal. Blood was collected from the orbital sinus onto the capillary tube. […] For the confirmation of clotting, clotting as checked 30 seconds after the last observed clotting. An increase in clotting time compared to vehicle is an index of inhibition of platelet aggregation.
[…] With OAS, only one clotting time measurement, at 2 hours post dosing, was performed.
In FIG. 1, the clotting time in minutes was plotted against Log of the dose in mg/kg, each point being an average of clotting time obtained in 5 rats. A value of zero was assigned to vehicle control (zero dose). […] (AceTyro=O-Acetyl-L-Tyrosine and AceSer=O-Acetyl-L-Serine HCl).

[6] = 8% acetonitrile/92% aqueous 0.05 mol buffer of KH2PO4 (pH 5)
[7] = single human volunteer, 136 lbs, 600 mg
[8] = Group-2, individual rats, likely 10 mg/kg
[9] = Group-3, individual rats, likely 20 mg/kg
[10] = Group-4, individual rats, likely 50 mg/kg
[11] = Group-5, individual rats, likely 100 mg/kg

SMILES: CC(=O)OC[C@H](NC(=O)[C@@H](N)COC(C)=O)C(=O)O [Ex 3, O-acetyl-(L)-serine-O-acetyl-(L)-serine] (H-Ser(Ac)-Ser(Ac)-OH)
- Hygroscopicity of salts ([1]; salts with HCl, MeSO3H and tartaric acid): hygroscopic
- Stability of the salt with tartaric acid on attempted recrystallization ([1]; water/acetonitrile, produced the zwitterion): unstable

SMILES: CC(=O)OC[C@H](N)C(=O)N[C@H](C(=O)O)[C@@H](C)OC(C)=O [Ex 4, O-acetyl-(L)-serine-O-acetyl-(L)-threonine] (H-Ser(Ac)-Thr(Ac)-OH)
- Stability in solutions during isolation, purification and analyses (qualitative) [2]: greatest instability in the whole series
- Purity estimated by NMR before re-dissolution ([2]; zwitterion): 95-96%
- Purity estimated by NMR after dissolution with DI water followed by freeze-drying ([2]; zwitterion, aqueous solution): 87-88%
- Variation of purity between HPLC analysis at 25 and 10° C. [3]: ≤ 20%
- Difference in HPLC purity between analysis at 25 C and 10 C ([3]; same sample): 13-15%
- HPLC purity, same sample analyzed at 10 C [3]: 93%
- HPLC purity, same sample analyzed at 25 C ([3]; temperature of analysis 25 C): 78-80%

SMILES: CC(=O)OC[C@H](N)C(=O)O.Cl [OAS, O-acetyl-L-Serine HCl salt]
- Clotting time [5, 8]: 6 minutes (2×) and 8 minutes and 9 minutes (2×)
- Clotting time [5, 9]: 9 minutes (3×) and 8 minutes (2×)
- Clotting time [5, 10]: 19 min and 20 min and 16 min and 17 min and 15 min
- Clotting time [5, 11]: 26 minutes (2×) and 22 minutes and 30 minutes and 29 minutes
- Significance of clotting times at all dose levels and between the dose levels (FIG. 1) [5]: statistically significant

SMILES: CC(=O)Oc1ccc(C[C@H](N)C(=O)O)cc1 [OAT, O-acetyl-L-Tyrosine]
- Clotting time in minutes, After 4 hrs of administration ([5]; Group-2, individual rats, group dose not given (doses 10, 20, 50, 100 mg/kg)): 8 minutes (2×) and 9 minutes (2×) and 10 minutes
- Clotting time in minutes, After 24 hrs of administration [5, 8]: 8 minutes (2×) and 9 minutes (2×) and 7 minutes
- Clotting time in minutes, After 4 hrs of administration [5, 9]: 9 minutes (2×) and 10 minutes (2×) and 15 minutes
- Clotting time in minutes, After 24 hrs of administration [5, 9]: 9 minutes and 10 minutes (2×) and 8 minutes and 11 minutes
- Clotting time in minutes, After 4 hrs of administration [5, 10]: 18 minutes and 19 minutes (2×) and 17 minutes (2×)
- Clotting time in minutes, After 24 hrs of administration [5, 10]: 14 minutes (3×) and 16 minutes (2×)
- Clotting time in minutes, After 4 hrs of administration [5, 11]: 21 minutes (2×) and 26 minutes and 29 minutes and 25 minutes
- Clotting time in minutes, After 24 hrs of administration [5, 11]: 19 min and 23 min and 22 min and 25 min and 24 min
- Significance of clotting times at all dose levels and between the dose levels (FIG. 1) [5]: statistically significant
- Whole blood clotting time ([4]; Vol 1 (90 Kg), 1000 mg once, Time 8): 6.5 min
- Whole blood clotting time ([4]; Vol 1 (90 Kg), 1000 mg once, Time 12): 8.5 min
- Whole blood clotting time ([4]; Vol 1 (90 Kg), 1000 mg once, Time 24): 8 min
- Whole blood clotting time ([4]; Vol 1 (90 Kg), 1000 mg once, Time 48): 7.5 min
- Sustained Increase % in clotting time ([4]; Vol 1, 1000 mg, at 48 hours after initial dose, listed as O-Acetyl Tyrosine): 25%
- Max % Increase in clotting time ([4]; Vol 1, 1000 mg): 42%
- Whole blood clotting time ([4]; Vol 2 (60 Kg), 350 mg once, Time 2): 5.5 min
- Whole blood clotting time ([4]; Vol 2 (60 Kg), 350 mg once, Time 5): 6 min
- Whole blood clotting time ([4]; Vol 2 (60 Kg), 350 mg once, Time 11): 6.75 min
- Whole blood clotting time ([4]; Vol 2 (60 Kg), 350 mg once, Time 22.5): 6.5 min
- Sustained Increase % in clotting time ([4]; Vol 2, 350 mg, last time point): 18%
- Max % Increase in clotting time ([4]; Vol 2, 350 mg, listed as O-Acetyl Tyrosine): 23%
- Time for which increase in clotting time was sustained ([4]; Volunteer 1, 1000 mg): at least 48 hours
- Dose dependence of increase in clotting time ([4]; two human volunteers, 1000 mg and 350 mg): dose dependent increase in clotting time
- Side effects or toxic reactions reported by volunteers ([4]; two human volunteers, single dose 1000 mg or 350 mg): Neither volunteer reported any unusual side effects or toxic reactions

Continued, in another order:

- Stability in solutions during isolation, purification and analyses (qualitative) [2]: Certain instability
- NMR purity of the fresh prepared sample ([2]; D2O with 1 drop of DCl): about 95%
- NMR sample after 4 days at room temperature ([2]; D2O with 1 drop of DCl, three sets of signals found): severe decomposition
- HPLC purity after 5 days after dissolution [3, 6]: 95.7%
- HPLC purity in solution before storage [3, 6]: 97.3%
- HPLC purity, same sample analyzed at 10 C [3]: 99.4%
- HPLC purity, same sample analyzed at 40 C [3]: 97.3%
- Stability in an aqueous solution as a salt of tartaric acid ([1]; compared with D2O/DCl sample): much greater
SMILES: CC(=O)OCC(NC(=O)[C@@H](N)COC(C)=O)C(=O)O (stereo partly shown) [Ex 3, O-acetyl-(L)-serine-O-acetyl-(L)-serine] (H-Ser(Ac)-[ξS](Ac)-OH)
- By-product on recrystallization from aqueous 40% EtOH ([1]; zwitterion, heating at 70 C for approximately 20 minutes, mother liquor): Significant accumulation of the O, N-acetyl shift's by-product

- O, N-shift by-product formed after 26 hours ([2]; D2O solution (NMR sample)): about 3.4%
- O, N-shift impurity after 5 days ([2]; same NMR sample in D2O): 4.7%
- HPLC purity, same sample analyzed at 15 C ([3]; temperature of analysis 15 C): 99%
- HPLC purity, same sample analyzed at 40 C [3]: 97%
SMILES: CC(=O)OC[C@H](N)C(=O)NC(Cc1ccc(OC(C)=O)cc1)C(=O)O (stereo partly shown) [Ex 5, O-acetyl-(L)-serine-O-acetyl-(L)-tyrosine] (H-Ser(Ac)-[ξY](Ac)-OH)
- Anti platelet activity (blood clotting time, FIG. 3) [4, 7]: significant anti platelet activity
- Period of significant anti platelet activity [4, 7]: 200 h
- Stability in solutions during isolation, purification and analyses (qualitative) [2]: comparable stability of relative to Compound F
- Decomposition in a solid state after 5 days of storage at 25 C ([2]; batch B, freshly dissolved material, NMR): a trace of the signal at 3.7 ppm (CH2OH group) was observed
